{"source": "patent US8404678B2", "about": "“Cytotoxic agents comprising new tomaymycin derivatives and their therapeutic use” (priority 2007, dated 2013)", "type_in_all_cases": "cell-based", "key": {"[1]": {"system": "Ramos cells", "experiment": "In vitro viability assay (WST-8)", "description": "(§1) Samples of free tomaymycin derivative or tomaymycin derivative conjugate are added to a 96-well flat bottomed tissue culture plate and titrated using serial dilutions ranging from 1×10^−12 M to 3×10^−7 M. Antigen positive tumor cells or antigen negative tumor cells are added to the wells in such a way that there are triplicate samples for each drug concentration for each cell line. […]\n[…] The absorbance in each well of the plates is then measured using the Molecular Devices plate reader at 450 nm. Surviving fraction of cells at each concentration of tomaymycin derivative or conjugate are plotted.\n(§2) The cytotoxicity of the compounds and their specificity vs. the conjugates of the invention against MOLT-4, BJAB, HL60/QC, HL60/ATCC and Ramos cell lines were tested. Results are illustrated in FIGS. 1, 2, 3, 6 and 8."}, "[2]": {"system": "HL60/QC cells", "experiment": "In vitro viability assay (WST-8)", "conditions": "Homo sapiens", "description": "(§3) Samples of free tomaymycin derivative or tomaymycin derivative conjugate are added to a 96-well flat bottomed tissue culture plate and titrated using serial dilutions ranging from 1×10^−12 M to 3×10^−7 M. Antigen positive tumor cells or antigen negative tumor cells are added to the wells in such a way that there are triplicate samples for each drug concentration for each cell line. The plates are incubated at 37° C. in an atmosphere of 5% CO2 for 4 days.\n(§4) At the end of the incubation period, 20 μl of the tetrazolium reagent WST-8 (2-(2-methoxy-nitrophenyl)-3-(4-nitrophenyl)-5-(2,4-disulfophenyl)-2-tetrazolium, monosodium salt) is added to each well, and the plates are returned to the incubator for 2 hours. The absorbance in each well of the plates is then measured using the Molecular Devices plate reader at 450 nm. Surviving fraction of cells at each concentration of tomaymycin derivative or conjugate are plotted.\nas §2"}, "[3]": {"system": "HL60/ATCC cells", "experiment": "In vitro viability assay (WST-8)", "description": "as §1, §4, §2"}, "[4]": {"system": "MDA-MB-231 cells", "experiment": "Continuous exposure clonogenic assay", "conditions": "Homo sapiens", "description": "(§5) MDA-MB-231 cells were plated at 3000 cells per well in two separate 6-well plates; PC-3 and SK-MEL-28 cells were plated at 2000 cells per well in 2 separate plates. The test article(s) were added to give final concentrations of 0, 5×10^−13, 5×10^−12, 5×10^−11, 5×10^−10 and 5×10^−9 M per well (or similar dosage range) to each plate. For example, when cells are plated in 1 mL, and 1 mL of a 2× concentration of the test compound or conjugate is added to the appropriate wells to give the final desired concentration in 2 mls. The final solution of the test article was made in the same medium as the cell line; therefore, different dilutions of conjugate had to be made for each different cell line. The plates are placed in an incubator at 37° C. in 5% CO2. Cell growth is monitored and when cells in the “0” (control) wells had formed colonies but were not confluent, usually 7 days for these cell lines, the supernatant was removed by aspiration. The cells were washed once with PBS (Phosphate Buffer Solution) and the supernatant aspirated. To each well, 0.5 ml per well of a 0.1% crystal violet/10% formalin/PBS was added. The plates were incubated at room temperature for 10-15 minutes. The supernatant was aspirated and the wells washed 3 times with distilled H2O, and then air dried. Colonies in each well were counted and the number of colonies in each dosed well was divided by the number of colonies in the “0” well to give the surviving fraction. IC50 values were then calculated from the data."}, "[5]": {"system": "PC-3 cells", "experiment": "Continuous exposure clonogenic assay", "conditions": "Homo sapiens", "description": "as §5"}, "[6]": {"system": "SK-MEL-28 cells", "experiment": "Continuous exposure clonogenic assay", "conditions": "Homo sapiens", "description": "as §5"}, "[7]": {"system": "various cell-lines", "experiment": "In vitro cytotoxicity, cell line not named", "conditions": "FIG. 3; IGP08-OMe compared with IGP08", "description": "as §3\nas §4, with “Surviving fraction of cells at each concentration of tomaymycin derivative or conjugate are plotted.” left out\nMDA-MB-231 cells were plated at 3000 cells per well in two separate 6-well plates; PC-3 and SK-MEL-28 cells were plated at 2000 cells per well in 2 separate plates. […] Cell growth is monitored and when cells in the “0” (control) wells had formed colonies but were not confluent, usually 7 days for these cell lines, the supernatant was removed by aspiration. […] Colonies in each well were counted and the number of colonies in each dosed well was divided by the number of colonies in the “0” well to give the surviving fraction. IC50 values were then calculated from the data."}, "[8]": {"conditions": "Homo sapiens, Ramos, read-out: In vitro data (IC50) Ramos"}, "[9]": {"conditions": "HL-60, read-out: In vitro data (IC50) HL60/QC"}, "[10]": {"conditions": "Homo sapiens, HL-60, read-out: In vitro data (IC50) HL60/ATCC"}, "[11]": {"conditions": "MDA-MB-231, read-out: In vitro data (IC50) MDA-MB-231"}, "[12]": {"conditions": "PC-3, read-out: In vitro data (IC50) PC-3"}, "[13]": {"conditions": "SK-MEL-28, read-out: In vitro data (IC50) SK-MEL-28"}}, "note": "pIC50: −log10 of the molar value. Where two headings read alike, the source gives them in different places."}
{"compound": "C=C1C[C@H]2C=Nc3cc(OCc4cc(CCC(=O)O)cc(COc5cc6c(cc5OC)C(=O)N5CC(=C)C[C@H]5C=N6)c4)c(OC)cc3C(=O)N2C1", "note": "[compound 9, 4-(3,5-Bis-[(S)-2-methylidene-7-methoxy-1,2,3,11a-tetrahydro-pyrrolo[2,1c][1,4]benzodiazepin-5-one-8-yloxymethyl]-phenyl)-propanoic acid]", "values": [{"measurement": "pIC50", "setting": "[1]; [8]", "value": 8.57}, {"measurement": "pIC50", "setting": "[2]; [9]", "value": 8.46}, {"measurement": "pIC50", "setting": "[3]; [10]", "value": 8.59}]}
{"compound": "C/C=C1\\C[C@H]2C=Nc3cc(OCc4cc(COc5cc6c(cc5OC)C(=O)N5C/C(=C/C)C[C@H]5C=N6)cc(OCCCC(=O)O)c4)c(OC)cc3C(=O)N2C1", "values": [{"measurement": "pIC50", "setting": "[1]; [8]", "value": 9.24}, {"measurement": "pIC50", "setting": "[2]; [9]", "value": 8.92}, {"measurement": "pIC50", "setting": "[3]; [10]", "value": 8.70}]}
{"compound": "C/C=C1\\C[C@H]2C=Nc3cc(OCc4cc(OCCCC(=O)OC)cc(COc5cc6c(cc5OC)C(=O)N5C/C(=C/C)C[C@H]5C=N6)n4)c(OC)cc3C(=O)N2C1", "values": [{"measurement": "pIC50", "setting": "[4]; [11]", "value": 11.77}, {"measurement": "pIC50", "setting": "[5]; [12]", "value": 10.96}, {"measurement": "pIC50", "setting": "[6]; [13]", "value": 11.06}]}
{"compound": "C/C=C1\\C[C@H]2C=Nc3cc(OCc4cc(COc5cc6c(cc5OC)C(=O)N5C/C(=C/C)C[C@H]5C=N6)cc(OCCOCCOCCOCCC(=O)OC)c4)c(OC)cc3C(=O)N2C1", "values": [{"measurement": "pIC50", "setting": "[3]; [10]", "value": 10.92}, {"measurement": "pIC50", "setting": "[4]; [11]", "value": 10.80}, {"measurement": "pIC50", "setting": "[5]; [12]", "value": 11.13}, {"measurement": "pIC50", "setting": "[6]; [13]", "value": 11.01}]}
{"compound": "huMy9-6—3-(2-{2-[2-(3,5-Bis-[(S)-2-eth-(E)-ylidene-7-methoxy-1,2,3,11a-tetrahydro-pyrrolo[2,1c][1,4]benzodiazepin-5-one-8-yloxymethyl]-phenoxy)-ethoxy]-ethoxy}-ethoxy)-propionyl conjugate [ex. 14]", "values": [{"measurement": "pIC50", "setting": "[1]; conjugate, Ramos (Ag−) @ 2000 cells/well, 5 day exposure, WST 4.5 hours, FIG. 23, read-out: ~IC50 Ramos cells", "value": "> 8.00"}, {"measurement": "pIC50", "setting": "[3]; conjugate, HL60/ATCC (Ag+) @ 5000 cells/well, 7 day exposure, WST 2 hours, FIG. 23, read-out: ~IC50 HL60/ATCC cells", "value": "~10.64"}]}
{"compound": "C/C=C1\\C[C@H]2C=Nc3cc(OCc4cc(C#CCCCC(=O)OC)cc(COc5cc6c(cc5OC)C(=O)N5C/C(=C/C)C[C@H]5C=N6)c4)c(OC)cc3C(=O)N2C1", "values": [{"measurement": "pIC50", "setting": "[1]; [8]", "value": 11.92}, {"measurement": "pIC50", "setting": "[3]; [10]", "value": 11.66}, {"measurement": "pIC50", "setting": "[4]; [11]", "value": 10.92}, {"measurement": "pIC50", "setting": "[5]; [12]", "value": 10.57}, {"measurement": "pIC50", "setting": "[6]; [13]", "value": 10.82}]}
{"compound": "C=C1C[C@H]2C=Nc3cc(OCc4cc(COc5cc6c(cc5OC)C(=O)N5C/C(=C/C)C[C@H]5C=N6)cc(OCC(=O)OC)c4)c(OC)cc3C(=O)N2C1", "values": [{"measurement": "pIC50", "setting": "[1]; [8]", "value": 11.85}, {"measurement": "pIC50", "setting": "[3]; [10]", "value": 10.92}]}
{"compound": "C=C1C[C@H]2C=Nc3cc(OCc4cc(CCC(=O)OC)cc(COc5cc6c(cc5OC)C(=O)N5CC(=C)C[C@H]5C=N6)c4)c(OC)cc3C(=O)N2C1", "note": "[compound 8]", "values": [{"measurement": "pIC50", "setting": "[1]; Homo sapiens, unconjugated tomaymicine derivatives, Ramos, read-out: In vitro data (IC50) Ramos", "value": 11.10}, {"measurement": "pIC50", "setting": "[2]; HL-60, unconjugated tomaymicine derivatives, HL60/QC, read-out: In vitro data (IC50) HL60/QC", "value": 11.96}, {"measurement": "pIC50", "setting": "[3]; Homo sapiens, HL-60, unconjugated tomaymicine derivatives, HL60/ATCC, read-out: In vitro data (IC50) HL60/ATCC", "value": 11.40}, {"measurement": "pIC50", "setting": "[4]; unconjugated tomaymicine derivatives, MDA-MB-231, read-out: In vitro data (IC50) MDA-MB-231", "value": 10.77}, {"measurement": "pIC50", "setting": "[5]; unconjugated tomaymicine derivatives, PC-3, read-out: In vitro data (IC50) PC-3", "value": 10.57}, {"measurement": "pIC50", "setting": "[6]; unconjugated tomaymicine derivatives, SK-MEL-28, read-out: In vitro data (IC50) SK-MEL-28", "value": 11.00}, {"measurement": "In vitro cytotoxicity potency, ester versus acid", "setting": "[7]", "value": "higher potency"}]}
{"compound": "C/C=C1\\C[C@H]2C=Nc3cc(OCc4cc(OCCOCCOCCOCCC(=O)OC)cc(COc5cc6c(cc5OC)C(=O)N5C/C(=C/C)C[C@H]5C=N6)n4)c(OC)cc3C(=O)N2C1", "values": [{"measurement": "pIC50", "setting": "[4]; [11]", "value": 11.10}, {"measurement": "pIC50", "setting": "[5]; [12]", "value": 9.30}, {"measurement": "pIC50", "setting": "[6]; [13]", "value": 10.15}]}
{"compound": "C/C=C1\\C[C@H]2C=Nc3cc(OCc4cc(COc5cc6c(cc5OC)C(=O)N5C/C(=C/C)C[C@H]5C=N6)cc(OCCN(C)C(=O)CCC(=O)OC)c4)c(OC)cc3C(=O)N2C1", "values": [{"measurement": "pIC50", "setting": "[4]; [11]", "value": 11.05}, {"measurement": "pIC50", "setting": "[5]; [12]", "value": 9.30}, {"measurement": "pIC50", "setting": "[6]; [13]", "value": 10.05}]}
